# Test system: Plasmodium falciparum
# Experiment: MMV: Measure of pLDH activity as indication of parasite viability. Gametocytogenesis of 3D7 Plasmodium falciparum strain was induced in vitro and asexual parasites were depleted with N-acetylglucosamine. Gametocytes were treated with dihydroartemisinin, epoxomicin, methylene blue, primaquine, puromycin or chloroquine in 96-well plates and the pLDH activity was evaluated using a modified Makler protocol. Mosquito infectivity was measured by the standard membrane feeding assay.
# Type: functional
# Parameters: concentration or dose not given beside the values
row,Structure (SMILES),Growth Inhibition
1,CCN1CCCC1CNc1[nH]cnc2c3cc(Cl)ccc3nc1-2 (stereo unspecified),8.5536%
2,COc1ccc(-c2c(C)nn3c(N)c(C#N)cnc23)cc1OC,32.2252%
3,CSC1=NC(=Nc2c(C)cccc2C)C2(CCC(C(C)(C)C)CC2)N1c1ccc(Cl)cc1 (stereo unspecified),-2.9236%
4,C[n+]1c2ccccc2nc2ccc(NCCO)cc21,16.8202%
5,Cc1cc(C)cc(Nc2cc(C)nc3nc(C(F)(F)F)nn23)c1,-10.2568%
6,O=C(NCC(c1ccsc1)N1CCCCCC1)c1ccc(C(F)(F)F)cc1 (stereo unspecified),-3.1098%
7,COc1ccc(-c2cc3c(SCC(=O)Nc4cc(C(F)(F)F)ccc4Cl)nccn3n2)cc1,0.117%
8,Cc1ccc(-c2cc3c(SCC(=O)Nc4cc(C(F)(F)F)ccc4Cl)nccn3n2)cc1,-10.2658%
9,CCN(CC)CCNc1ncnc2c1[nH]c1ccc(Cl)cc12,10.0038%
10,CCOC(=O)c1cnc2ccc(CC)cc2c1O,41.8585%
11,CCN(CC)CCNc1ccnc2cc(Cl)ccc12,9.9324%
12,CCCCCC(=O)N1c2ccccc2N=C2CC(c3ccc(OC)c(OC)c3)CC(O)=C2C1c1ccc(C(F)(F)F)cc1 (stereo unspecified),33.4948%
13,Cc1cc(Nc2ccc3ccccc3c2)n2ncnc2n1,-5.4308%
14,Cc1cc(NCCN2CCCCC2)c2ccc3ccccc3c2n1,17.8584%
15,COc1ccc(-n2ccnc2SCC(=O)Nc2cc(C)ccc2C)c(OC)c1,2.884%
16,CCN1CCN(Cc2ccc(NC(=O)c3cc4ccc5cccnc5c4[nH]3)cc2)CC1,4.9364%
17,COc1ccc(-c2nc(NC(=O)CS(=O)(=O)c3ccc(F)cc3)sc2C)cc1,30.52%
18,O=C(O)C1Cc2c([nH]c3ccccc23)C(c2ccc(Cl)cc2Cl)N1 (stereo unspecified),8.0448%
19,Cc1ccc(N2C(=O)C3C(C2=O)C2(c4ccccc4)C(=O)C3(c3ccccc3)C(c3ccccc3)=C2c2ccccc2)cc1 (stereo unspecified),4.6846%
20,CCc1c(C)c(=N)c2ccccc2n1C.I,-4.4994%
21,CCOC(=O)c1cn(CC)c2cc(N(C)CCc3ccc(OC)c(OC)c3)c(F)cc2c1=O,25.5006%
22,CCC(c1ccccc1)c1nn2c(-c3cccs3)nnc2s1 (stereo unspecified),4.041%
23,CC(C)(C)c1ccc(O)c(CNC2CCCCC2)c1,30.335%
24,O=[N+]([O-])c1ccc(C=NNc2nc3ccccc3[nH]2)cc1,-2.3354%

row,Structure (SMILES),Growth Inhibition
1,CCOc1cc2c(cc1OCC)C(c1cc(OC)c(O)cc1Cl)NCC2 (stereo unspecified),24.0654%
2,CC1CN(C(=O)c2sc3ccccc3c2Cl)CC(C)O1 (stereo unspecified),1.741%
3,CN(C)c1ccc(C=Cc2nc(=O)c3ccccc3o2)cc1,1.8448%
4,COc1ccc(C2=C(c3ccc(OC)cc3)C3(c4ccccc4)C(=O)C2(c2ccccc2)C2C(=O)N(c4ccc(C)cc4)C(=O)C23)cc1 (stereo unspecified),-4.8036%
5,CCOC(=O)c1c(NC(=O)c2ccccc2)sc2c(O)c(CN(CC)CC)ccc12,35.4934%
6,CCOC(=O)C1=C(c2ccccc2)N=c2sc(=Cc3cc(C)n(-c4ccc(F)cc4)c3C)c(=O)n2C1c1cccc(OC)c1OC (stereo unspecified),-7.255%
7,CCC1(C)CC(CCNCc2ccccc2O)(c2ccc(C)cc2)CCO1 (stereo unspecified),26.52%
8,OC(CNC1CCCCC1)Cn1c2ccccc2c2ccccc21 (stereo unspecified),33.5526%
9,Cc1cc(Nc2ccc(C)c(Cl)c2)n2nc(C(F)(F)F)nc2n1,1.818%
10,COc1cccc(C=Cc2nc(=O)c3ccccc3o2)c1OC,2.1344%
11,CCCN(CCC)CC(O)COc1ccccc1C(=O)Nc1ccccc1 (stereo unspecified),34.3502%
12,Fc1ccc2[nH]c3c(NCCCN4CCOCC4)ncnc3c2c1,3.632%
13,COc1ccc(C(=O)Nc2nonc2-c2ccc(OC)c(OC)c2)cc1Cl,7.9826%
14,COc1ccc(C=C2SC(=N)N(c3ccccc3OC)C2=O)cc1,26.57%
15,COc1ccc(NC(=O)C2c3ccccc3C(=O)N(CC(C)C)C2c2cccs2)cc1Cl (stereo unspecified),14.3436%
16,CCOC(=O)c1c(C)n(-c2ccc(Cl)cc2)c2ccc(OC(=O)C=Cc3ccccc3)cc12,-3.2706%
17,COc1ccc2c(c1)OC(O)(C(F)(F)C(F)(F)F)CC2=O (stereo unspecified),11.5806%
18,C=CC12CCN(CC1)C(C(O)c1ccnc3ccc(OC)cc13)C2.Cl (stereo unspecified),15.913%
19,Cc1ccc(-c2cc3nc4c(c(O)n3n2)CCCC4)cc1,9.811%
20,Cc1cccc(Nc2nc(N)c3ccccc3n2)c1.Cl,-0.3732%
21,CCn1c(CN2CCN(Cc3ccccc3)CC2)nc2cc(NC(=O)c3cccs3)ccc21,17.812%
22,COc1ccccc1CNC(=O)CCn1c(=O)[nH]c2ccccc2c1=O,-1.4414%
23,c1ccc2cc3c(Nc4ccc(N5CCOCC5)cc4)ccnc3cc2c1,12.7974%
24,Cc1cc(C)c2c(c1)OCN(Cc1ccccc1Cl)C2,32.69%

row,Structure (SMILES),Growth Inhibition
1,COc1cc(OC)c(N(C)C(=O)c2cc3c(s2)-c2ccccc2S(=O)(=O)C3)cc1Cl,6.301%
2,CCOC(=O)c1cn(CC)c2cc(N3CCCCC3)c(F)cc2c1=O,27.8444%
3,CCCc1cc(O)c2c3c(c(=O)oc2c1)CN(C)CC3,31.2868%
4,Cc1cc(NC(=O)C2c3ccccc3C(=O)N(CC(C)C)C2c2cccs2)no1 (stereo unspecified),21.7574%
5,Cl.Oc1ccccc1CNCC12CC3CC(CC(C3)C1)C2,28.0055%
6,CNCCCNc1ccnc2cc(Cl)ccc12,-4.352%
7,COc1ccccc1CNC(=O)CCn1c(=O)[nH]c2ccsc2c1=O,-5.0228%
8,COc1ccc(Br)cc1C1Nc2ccc3ccccc3c2C2=C1C(=O)CC(c1ccccc1)C2 (stereo unspecified),7.0344%
9,Cc1cc(C=C2SC(=Nc3ccccc3)N(C3CCCC3)C2=O)c(C)n1-c1ccc(Cl)cc1,-0.992%
10,CC1CCN(Cc2ccc(NC(=O)c3cc4ccc5cccnc5c4[nH]3)cc2)CC1,2.4882%
11,CCc1ccc(Nc2cc(C)c3ccc(O)cc3n2)cc1.Cl,27.662%
12,COc1ccc2c(=O)cc(C(Cl)(Cl)Cl)oc2c1,12.9182%
13,COc1ccc(-c2nc3cc(Cc4ccc5[nH]c(-c6ccc(OC)cc6)nc5c4)ccc3[nH]2)cc1,4.7376%
14,CCOC(=O)c1ccc2nc(-c3ccccc3)cc(O)c2c1,40.6125%
15,Cc1cc(Nc2ccc(Cl)cc2)n2nc(C(F)(F)F)nc2n1,7.7522%
16,COc1ccc(C(C)=O)cc1N1C(=O)C2C(C1=O)C1(c3ccccc3)C(=O)C2(c2ccccc2)C(c2ccc(C)cc2)=C1c1ccc(C)cc1 (stereo unspecified),-2.6232%
17,CCCCCCOC(=O)C1=C(C)NC(=O)NC1c1ccccc1F (stereo unspecified),6.2916%
18,Cc1ccc(N2C3c4ccccc4N(S(=O)(=O)c4ccc(C)cc4)C2c2ccccc2N3S(=O)(=O)c2ccc(C)cc2)cc1,-2.5084%
19,CCCc1c(CC)c(=N)c2ccccc2n1C,4.7322%
20,Cc1ccc(Nc2nc(NCCO)c3ccccc3n2)cc1C,11.5812%
21,CCOC(=O)c1cnc2c(C)cc(C)cc2c1Nc1ccc(OC)c(OC)c1,-11.2088%
22,COc1ccc(NC(=O)C2c3ccccc3C(=O)N(CC(C)C)C2c2cccs2)cc1 (stereo unspecified),28.379%
23,c1ccc(Cn2c(N=Nc3c(Nc4ccccc4)ccc4ccccc34)nc3ccccc32)cc1,28.0754%

# Reference: ChEMBL document CHEMBL3301555, “MMV Malaria Box screening in pLDH viability assay against Plasmodium falciparum gametocytes”
